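Growth conditions: 96-well plates. Treatment: test compound, 48 hours, 5 concentrations. Analysis: linear interpolation between bracketing concentrations; unreached endpoints set to highest concentration. GI50 is the concentration that inhibits growth by half. The concentration for full growth arrest is given as TGI.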

Test systems include NCI-H23 lung; TK-10 renal; OVCAR-8 ovarian; NCI-H460 lung; SN12C renal; M14 melanoma; HT29 colon; RPMI-8226 leukemia; SNB-75 CNS; SNB-19 CNS; OVCAR-4 ovarian; SF-295 CNS; PC-3 prostate; IGROV1 ovarian.
Common to all, as to test: growth of human tumour cells (NCI), 48 h

As for `CCOC(=O)/C=C(\C(=O)OCC)n1cnc2c(N)ncnc21`, the TGI in the test on NCI-H23 lung is 31.8 µM; with TK-10 renal, 17.3 µM; with OVCAR-8 ovarian, 18.1 µM; in the test on NCI-H460 lung, 38.7 µM; in the test on SN12C renal it was 10.8 µM; in the test on M14 melanoma, 22.7 µM. For the same compound, the TGI with HT29 colon is 23.1 µM; in the test on RPMI-8226 leukemia, 5.4 µM; in the test with SNB-75 CNS, 26 µM; in the test on SNB-19 CNS, 30 µM; with OVCAR-4 ovarian it was over 48.7 µM; in the test on SF-295 CNS, 32.1 µM. Besides, the figures for the TGI in the test on PC-3 prostate and in the test on IGROV1 ovarian were 26.1 µM and 26.7 µM, respectively.

Regarding `OCCCCn1cc(Cn2ncc3c(SCc4ccccc4)ncnc32)nn1`, the TGI with NCI-H23 lung, with TK-10 renal, with OVCAR-8 ovarian, in the test with NCI-H460 lung, in the test with SN12C renal and with M14 melanoma was over 100 µM throughout. In addition, the TGI in the test on HT29 colon, in the test on RPMI-8226 leukemia, in the test on SNB-75 CNS, with SNB-19 CNS, in the test on OVCAR-4 ovarian and in the test on SF-295 CNS was over 100 µM in each case. Also, the TGI in the test on PC-3 prostate and with IGROV1 ovarian was over 100 µM each time.

Turning to `COc1ccc(/C=C(\C(=O)OCC(C)C)c2ccc(OC)c(OC)c2)cc1OC`, the TGI in the test with NCI-H23 lung, in the test with TK-10 renal, in the test with OVCAR-8 ovarian, in the test on NCI-H460 lung, in the test on SN12C renal and in the test on M14 melanoma was over 100 µM each time. Further, the TGI with HT29 colon, in the test with RPMI-8226 leukemia, in the test with SNB-75 CNS, with SNB-19 CNS, in the test on OVCAR-4 ovarian and in the test with SF-295 CNS was over 100 µM each time. In addition, the TGI in the test with PC-3 prostate and in the test with IGROV1 ovarian was over 100 µM each time.

Consider `O=C1OC2c3ccccc3C(=O)C2(c2ccccc2)N1c1ccccc1` (configuration not stated), for which the TGI in the test with NCI-H23 lung, in the test with TK-10 renal, with OVCAR-8 ovarian, in the test on NCI-H460 lung, in the test with SN12C renal and in the test with M14 melanoma was over 200 µM in each case. The TGI with HT29 colon, in the test with RPMI-8226 leukemia, in the test with SNB-75 CNS, in the test on SNB-19 CNS, with OVCAR-4 ovarian and in the test on SF-295 CNS was over 200 µM in each case. Further, the TGI in the test on PC-3 prostate and in the test with IGROV1 ovarian was over 200 µM in each case.

`O=C1N(CN2CCOCC2)CN(CN2CCOCC2)C(=O)N1Cc1ccccc1`: the TGI was 38.9 µM in the test with NCI-H23 lung; over 100 µM with TK-10 renal; 43.4 µM with OVCAR-8 ovarian; over 100 µM in the test with NCI-H460 lung; 48.6 µM with SN12C renal; 33.3 µM in the test on M14 melanoma. Moreover, the TGI in the test with HT29 colon was 39.9 µM; in the test on RPMI-8226 leukemia, 60.3 µM; with SNB-75 CNS, 72.5 µM; in the test with SNB-19 CNS, over 100 µM; in the test on OVCAR-4 ovarian, over 100 µM; with SF-295 CNS, over 100 µM. The TGI was over 100 µM in the test on PC-3 prostate and 64.9 µM with IGROV1 ovarian.

Take `CC(=O)[O-].[Ni].c1ccc(/C(=N\Nc2ccccn2)c2ccccn2)cc1`: the TGI stood at 28.9 µM with NCI-H23 lung; 20.7 µM in the test with TK-10 renal; 31.6 µM in the test on OVCAR-8 ovarian; 28 µM in the test with NCI-H460 lung; 29.3 µM in the test on SN12C renal; 17.8 µM in the test with M14 melanoma. For the same compound, the TGI was 23.8 µM in the test with HT29 colon; 16.3 µM with RPMI-8226 leukemia; 46.1 µM in the test with SNB-75 CNS; 54 µM in the test with SNB-19 CNS; over 59.7 µM in the test on OVCAR-4 ovarian; 26.8 µM in the test with SF-295 CNS. The TGI was 19.9 µM in the test on PC-3 prostate and 29.7 µM with IGROV1 ovarian. Besides, the GI50 in the test on HT29 colon is 0.056 µM.

For `O=C1c2ccccc2C(=O)c2c1oc(=O)c1ccccc21`, the TGI is 10.6 µM with NCI-H23 lung; 18.9 µM in the test on TK-10 renal; 15.1 µM in the test with OVCAR-8 ovarian; 10.9 µM in the test with NCI-H460 lung; 7.91 µM in the test on SN12C renal; 16.1 µM in the test on M14 melanoma. Besides, the TGI in the test on HT29 colon is 13 µM; in the test with RPMI-8226 leukemia it was 19.2 µM; with SNB-75 CNS it was 12.3 µM; in the test on SNB-19 CNS it was over 25 µM; in the test with OVCAR-4 ovarian, 3.56 µM; in the test on SF-295 CNS, 7.41 µM. In addition, the TGI in the test on PC-3 prostate worked out at 19.2 µM; in the test with IGROV1 ovarian it was 10.4 µM.

Turning to `COc1cc(-c2c3c([nH]c(=O)c2C#N)-c2cc([N+](=O)[O-])ccc2CCC3)cc(OC)c1OC`, the TGI in the test with NCI-H23 lung was 45.8 µM; in the test on TK-10 renal, over 100 µM; with OVCAR-8 ovarian, over 100 µM; in the test with NCI-H460 lung, 67 µM; in the test with SN12C renal, 46.7 µM; in the test on M14 melanoma, over 100 µM. For the same compound, the TGI is over 100 µM in the test on HT29 colon; 52.1 µM in the test on RPMI-8226 leukemia; 62.6 µM with SNB-75 CNS; over 100 µM with SNB-19 CNS; over 100 µM in the test on OVCAR-4 ovarian; 33.1 µM in the test on SF-295 CNS. Further, the TGI in the test on PC-3 prostate and with IGROV1 ovarian was over 100 µM in each case.

As to `COc1ccc(C(=O)Cn2c(C(C)=O)nc3ccccc32)cc1`, the TGI in the test with NCI-H23 lung was over 100 µM; with TK-10 renal, over 100 µM; in the test with OVCAR-8 ovarian it was over 44.5 µM; with NCI-H460 lung, over 61.7 µM; in the test with SN12C renal, over 100 µM; in the test on M14 melanoma it was over 100 µM. The TGI was over 100 µM in the test with HT29 colon; over 100 µM in the test on RPMI-8226 leukemia; over 100 µM with SNB-75 CNS; over 100 µM with SNB-19 CNS; over 100 µM in the test with OVCAR-4 ovarian; 80.6 µM in the test with SF-295 CNS. The TGI in the test with PC-3 prostate and with IGROV1 ovarian was over 100 µM throughout.

The values are drawn from PubChem BioAssay (NCI).
